Measurements published in US10494332B2, “Protein tyrosine phosphatases or SHP2 inhibitors and uses thereof” (Indiana University Research and Technology Corporation, priority 2015, dated 2019).
Like-named read-outs stand apart in the source and are kept apart here.

Columns and labels:
Type in all cases: biochemical
[1] = biological target: T1, SHP2 (Homo sapiens, UniProt Q06124); assay: SHP2 phosphatase inhibition assay (pNPP); details: for IC50: read-out: IC50 SHP2
T1 sequence (Q06124 224-528): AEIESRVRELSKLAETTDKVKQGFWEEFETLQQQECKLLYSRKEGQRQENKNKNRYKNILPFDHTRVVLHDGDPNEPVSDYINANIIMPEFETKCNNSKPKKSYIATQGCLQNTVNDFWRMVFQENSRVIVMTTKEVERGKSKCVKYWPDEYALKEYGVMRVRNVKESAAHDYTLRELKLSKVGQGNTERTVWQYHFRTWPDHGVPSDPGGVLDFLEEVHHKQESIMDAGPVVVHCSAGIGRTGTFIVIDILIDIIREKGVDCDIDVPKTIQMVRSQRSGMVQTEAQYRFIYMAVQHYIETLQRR

[2] = biological target: T2, LMWPTP (Homo sapiens, UniProt P24666); assay: PTP inhibition assay (pNPP)
T2 sequence (P24666 1-158): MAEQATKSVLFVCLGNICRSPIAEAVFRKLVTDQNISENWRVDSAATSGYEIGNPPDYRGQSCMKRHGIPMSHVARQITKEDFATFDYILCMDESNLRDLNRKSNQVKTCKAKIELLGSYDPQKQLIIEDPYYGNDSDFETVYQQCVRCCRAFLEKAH

[3] = biological target: T3, LYP (Homo sapiens, UniProt Q9Y2R2); assay: PTP inhibition assay (pNPP); details: […]; LYP
T3 sequence (Q9Y2R2 1-807): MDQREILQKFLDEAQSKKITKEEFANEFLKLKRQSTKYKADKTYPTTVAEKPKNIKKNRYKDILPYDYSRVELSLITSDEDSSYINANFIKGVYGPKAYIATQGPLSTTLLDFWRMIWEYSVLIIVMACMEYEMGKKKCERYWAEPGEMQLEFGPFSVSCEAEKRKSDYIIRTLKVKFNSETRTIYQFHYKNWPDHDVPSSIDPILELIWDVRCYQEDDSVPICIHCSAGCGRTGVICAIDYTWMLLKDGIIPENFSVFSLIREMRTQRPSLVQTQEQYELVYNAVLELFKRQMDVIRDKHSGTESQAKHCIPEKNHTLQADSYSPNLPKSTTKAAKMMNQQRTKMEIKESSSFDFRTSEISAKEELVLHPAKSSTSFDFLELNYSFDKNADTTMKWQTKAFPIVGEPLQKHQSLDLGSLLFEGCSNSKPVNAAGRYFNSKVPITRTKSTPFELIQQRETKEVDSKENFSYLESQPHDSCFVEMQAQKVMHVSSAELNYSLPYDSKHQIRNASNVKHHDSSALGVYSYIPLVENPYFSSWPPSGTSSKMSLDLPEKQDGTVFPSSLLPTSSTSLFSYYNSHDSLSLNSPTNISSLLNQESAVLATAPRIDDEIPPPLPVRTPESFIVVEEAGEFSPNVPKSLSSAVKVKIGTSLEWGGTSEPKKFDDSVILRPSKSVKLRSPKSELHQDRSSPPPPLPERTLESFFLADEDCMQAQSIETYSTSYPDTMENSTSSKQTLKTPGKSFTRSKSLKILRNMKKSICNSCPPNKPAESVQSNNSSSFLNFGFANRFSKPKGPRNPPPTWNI

[4] = biological target: T4, HePTP (Homo sapiens, UniProt P35236); assay: PTP inhibition assay (pNPP); details: […]; HePTP
T4 sequence (P35236 1-360): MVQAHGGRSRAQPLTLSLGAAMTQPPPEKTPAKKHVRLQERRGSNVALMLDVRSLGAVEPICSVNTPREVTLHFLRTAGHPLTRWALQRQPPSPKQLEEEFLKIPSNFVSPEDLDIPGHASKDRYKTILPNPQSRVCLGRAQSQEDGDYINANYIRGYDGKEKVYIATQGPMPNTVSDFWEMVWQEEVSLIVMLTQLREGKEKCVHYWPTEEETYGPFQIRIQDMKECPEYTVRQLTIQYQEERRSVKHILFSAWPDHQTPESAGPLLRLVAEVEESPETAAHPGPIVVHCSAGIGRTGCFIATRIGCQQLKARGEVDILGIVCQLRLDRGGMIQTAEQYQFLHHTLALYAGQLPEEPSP

[5] = Example 9: SHP2 catalytic domain 20 nM, pNPP 3 mM, pH 7.0, 25° C.

Row | SMILES | IC50 ([1]; pNPP at Km, pH 7.0, 25° C.) | IC50 ([2]; […], LMWPTP) | IC50 [3] | IC50 ([1]; […], SHP2) | IC50 [4] | also measured
1 | O=C(Nc1ccc(NC(=O)C(c2ccccc2)S(=O)(=O)O)cc1)c1ccc(-c2ccc(Cl)cc2Cl)o1 (stereo not shown) [Compound L319-04-B34] | 7.9 µM | – | – | – | – | –
2 | O=C(Nc1ccc(N2CCOCC2)cc1)C(c1ccccc1F)S(=O)(=O)O (stereo not shown) [Compound L319-06-M68] | – | > 100 µM | > 100 µM | > 100 µM | 22 µM | –
3 | O=C(Nc1ccc(N2CCOCC2)cc1)C(c1ccccc1Cl)S(=O)(=O)O (stereo not shown) [Compound L319-07-M68] | – | > 100 µM | > 100 µM | > 100 µM | 11 µM | –
4 | O=C(NNc1ccccc1)C(c1ccc([N+](=O)[O-])cc1)S(=O)(=O)O (stereo not shown) [Compound L319-08-N58] | – | 11 µM | 9.9 µM | 7.28 µM | 16 µM | –
5 | Cc1ccc(C(C(=O)Nc2ccc(N3CCOCC3)cc2)S(=O)(=O)O)cc1 (stereo not shown) [Compound L319-11-M68] | – | > 100 µM | 7.6 µM | > 100 µM | 3.2 µM | –
6 | O=C(Nc1ccc(N2CCOCC2)cc1)C(c1ccc(Br)cc1)S(=O)(=O)O (stereo not shown) [Compound L319-12-M68] | – | 21 µM | 7.43 µM | > 100 µM | 3.9 µM | –
7 | O=C(Nc1ccc(N2CCOCC2)cc1)C(c1cccc(F)c1)S(=O)(=O)O (stereo not shown) [Compound L319-13-M68] | – | 27 µM | 10 µM | > 100 µM | 4.3 µM | –
8 | O=C(Nc1ccc(OCc2ccccc2)c(Cl)c1)C(c1ccc2ccccc2c1)S(=O)(=O)O (stereo not shown) [Compound L319-14-M50] | – | 28.8 µM | 23 µM | 24 µM | 25 µM | –
9 | O=C(Nc1ccc(N2CCOCC2)cc1)C(c1ccc2ccccc2c1)S(=O)(=O)O (stereo not shown) [Compound L319-14-M68] | – | > 100 µM | 8.3 µM | > 100 µM | 4.5 µM | –
10 | CC(C)CCNC(=O)C(c1ccc2ccccc2c1)S(=O)(=O)O (stereo not shown) [Compound L319-14-N03] | – | > 100 µM | 11.6 µM | 74 µM | 24 µM | –
11 | O=C(Nc1ccc(Br)c2ccccc12)C(c1ccc(-c2ccccc2)cc1)S(=O)(=O)O (stereo not shown) [Compound L319-16-M47] | – | 37 µM | 22 µM | 24 µM | 21 µM | –
12 | O=C(Nc1nc2cc(Cl)ccc2o1)C(c1ccc(-c2ccccc2)cc1)S(=O)(=O)O (stereo not shown) [Compound L319-16-M60] | – | 18 µM | 15 µM | 12 µM | 13 µM | –
13 | O=C(C(c1ccc(-c2ccccc2)cc1)S(=O)(=O)O)N1CCc2cc(Br)ccc21 (stereo not shown) [Compound L319-16-M93] | – | 24 µM | 16 µM | 16 µM | 7.6 µM | –
14 | O=C(NNc1ccccc1[N+](=O)[O-])C(c1ccc(-c2ccccc2)cc1)S(=O)(=O)O (stereo not shown) [Compound L319-16-N55] | – | 90 µM | 35 µM | 82 µM | 43 µM | –
15 | O=C(Nc1ccc(I)cc1)C(=O)Nc1ccc(NC(=O)C(c2ccccc2)S(=O)(=O)O)cc1 (stereo not shown) [Compound L319-20-M24] | 1.5 µM | – | – | – | – | –
16 | O=C(Nc1ccc(NC(=O)C(c2ccccc2)S(=O)(=O)O)cc1)C(=O)Nc1ccc(-c2cccs2)cc1 (stereo not shown) [Compound L319-20-M74] | 0.9 µM | – | – | – | – | –
17 | O=C(NC1=NN=C(c2ccc(Br)cc2)C1)C(=O)Nc1ccc(NC(=O)C(c2ccccc2)S(=O)(=O)O)cc1 (stereo not shown) [Compound L319-20-M78] | 0.7 µM | – | – | – | – | –

Row | SMILES | IC50 ([1]; pNPP at Km, pH 7.0, 25° C.) | IC50 ([2]; […], LMWPTP) | IC50 [3] | IC50 ([1]; […], SHP2) | IC50 [4] | also measured
18 | O=C(Nc1ccc(NC(=O)C(c2ccccc2)S(=O)(=O)O)cc1)C(=O)Nc1ccc(-c2ccccc2)cc1 (stereo not shown) [Compound L319-20-N08] | 1.4 µM | – | – | – | – | –
19 | CC(C)c1ccc(NC(=O)C(=O)Nc2ccc(NC(=O)C(c3ccccc3)S(=O)(=O)O)cc2)cc1 (stereo not shown) [Compound L319-20-N25] | 2.3 µM | – | – | – | – | –
20 | Cc1c(Br)cc(NC(=O)C(=O)Nc2cccc(NC(=O)C(c3ccccc3)S(=O)(=O)O)c2)cc1Br (stereo not shown) [Compound L319-22-M34] | 5.7 µM | – | – | – | – | –
21 | O=C(Nc1cccc(NC(=O)C(c2ccccc2)S(=O)(=O)O)c1)C(=O)Nc1ccc(OCc2ccccc2)c(Cl)c1 (stereo not shown) [Compound L319-22-M50] | 7.5 µM | – | – | – | – | –
22 | O=C(Nc1cccc(Cc2ccccc2)c1)C(=O)Nc1cccc(NC(=O)C(c2ccccc2)S(=O)(=O)O)c1 (stereo not shown) [Compound L319-22-M51] | 10 µM | – | – | – | – | –
23 | O=C(NCc1ccc(NC(=O)C(c2ccccc2)S(=O)(=O)O)cc1)C(=O)Nc1ccc(-c2cccs2)cc1 (stereo not shown) [Compound L319-23-M74] | 3.5 µM | – | – | – | – | –
24 | O=C(Nc1ccc(CNC(=O)C(c2ccccc2)S(=O)(=O)O)cc1)C(=O)Nc1ccc(-c2cccs2)cc1 (stereo not shown) [Compound L319-24-M74] | 1.34 µM | – | – | – | – | –
25 | O=C(Nc1ccc(CNC(=O)C(c2ccccc2)S(=O)(=O)O)cc1)C(=O)Nc1ccccc1-c1nc2ccccc2[nH]1 (stereo not shown) [Compound L319-24-M77] | 1.1 µM | – | – | – | – | –
26 | O=C(Nc1nc2ccccc2s1)C(Br)(c1ccccc1)S(=O)(=O)O (stereo not shown) [Compound L319-Br1-N15] | – | – | – | 13.2 µM | 0.2 µM | –
27 | O=C(N1CCC(c2ccc(Cl)c(Cl)c2)CC1)C(Br)(c1ccccc1)S(=O)(=O)O (stereo not shown) [Compound L319-Br1-N47] | – | – | – | 22.8 µM | 26 µM | –
28 | COc1ccc(CNC(=O)C(Br)(c2ccccc2)S(=O)(=O)O)c(OC)c1 (stereo not shown) [Compound L319-Br1-N76] | – | – | – | 9.9 µM | 21.7 µM | –
29 | O=C(CP(=O)(O)O)Nc1nc2ccccc2s1 [Compound L338N15] | – | – | – | – | – | IC50 ([2]; pNPP at Km, pH 7.0, 25° C.): 30 µM
30 | O=C(O)C(=O)Nc1ccc(NC(=O)C(c2ccccc2)S(=O)(=O)O)cc1 (stereo not shown) [Lib-1, 2-oxo-2-((4-(2-phenyl-2-sulfoacetamido)phenyl)amino)acetic acid] | – | – | – | – | – | IC50 [1, 5]: > 50 µM
31 | O=C(O)C(=O)Nc1cccc(NC(=O)C(c2ccccc2)S(=O)(=O)O)c1 (stereo not shown) [Lib-2, 2-oxo-2-((3-(2-phenyl-2-sulfoacetamido)phenyl)amino)acetic acid] | – | – | – | – | – | IC50 [1, 5]: > 50 µM
32 | O=C(O)C(=O)NCc1ccc(NC(=O)C(c2ccccc2)S(=O)(=O)O)cc1 (stereo not shown) [Lib-3, 2-oxo-2-((4-(2-phenyl-2-sulfoacetamido)benzyl)amino)acetic acid] | – | – | – | – | – | IC50 [1, 5]: > 50 µM
33 | O=C(O)C(=O)Nc1ccc(CNC(=O)C(c2ccccc2)S(=O)(=O)O)cc1 (stereo not shown) [Lib-4, 2-oxo-2-((4-((2-phenyl-2-sulfoacetamido)methyl)phenyl)amino)acetic acid] | – | – | – | – | – | IC50 [1, 5]: > 50 µM
34 | CC1(C)S[C@@H]2[C@H](NC(=O)C(c3ccccc3)S(=O)(=O)O)C(=O)N2[C@H]1C(=O)O (stereo partly shown) [sulbenicillin, reference compound] | – | – | – | – | – | Inhibition of SHP2 at 200 μM ([1]; 200 μM compound concentration): no activity
